The source of these data is paper PMC12366525, “Characterization of allosteric modulators that disrupt androgen receptor co-activator protein-protein interactions to alter transactivation–Drug leads for metastatic castration resistant prostate cancer” (SLAS discovery : advancing life sciences R & D, 2023).

The nature of series [1]: PC-3-ARV7-GFP viability counter screen. The series is classed as cell-based. The note with it: human, PC3-AR-V7-GFP cells; cytotoxicity counter screen; read-out: PC-3-ARV7-GFP viability CS GI50. Background: The purpose of a counterscreen is to sort out artefacts and off-target activity.
The target in series [2] is T1, AR-V7 (Homo sapiens, UniProt P10275).
T1 construct: expressed in transfected cells; host or cells: PC3 cells stably expressing AR-V7-GFP
T1 sequence (P10275 1-644 isoform P10275-3): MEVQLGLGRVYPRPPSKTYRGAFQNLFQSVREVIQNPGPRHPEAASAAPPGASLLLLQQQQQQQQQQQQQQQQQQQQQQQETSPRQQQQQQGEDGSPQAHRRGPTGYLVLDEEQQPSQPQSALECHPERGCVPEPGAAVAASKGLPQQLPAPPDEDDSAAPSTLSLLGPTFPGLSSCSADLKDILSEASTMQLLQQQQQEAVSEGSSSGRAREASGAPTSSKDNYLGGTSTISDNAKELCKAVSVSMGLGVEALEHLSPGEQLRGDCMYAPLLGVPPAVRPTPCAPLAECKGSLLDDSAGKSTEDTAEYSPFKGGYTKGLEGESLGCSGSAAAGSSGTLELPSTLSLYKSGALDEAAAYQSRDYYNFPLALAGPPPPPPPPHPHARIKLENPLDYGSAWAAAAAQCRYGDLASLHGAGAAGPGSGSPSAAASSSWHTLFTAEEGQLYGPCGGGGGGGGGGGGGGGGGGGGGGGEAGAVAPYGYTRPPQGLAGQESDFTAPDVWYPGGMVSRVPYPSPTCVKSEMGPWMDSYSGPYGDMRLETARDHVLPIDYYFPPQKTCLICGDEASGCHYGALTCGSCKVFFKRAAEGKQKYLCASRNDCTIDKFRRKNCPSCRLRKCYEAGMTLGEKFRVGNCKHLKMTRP
In words: UBE2C promoter driven luciferase reporter assay in PC3-AR-V7-GFP cells. The series is classed as cell-based. The note with it: constitutive, 24 h; read-out: PC-3-ARV7-GFP UBE2C-Luc Reporter IC50. As to the method:
The pGL4.28-UBE2C 20bpX3 luciferase reporter plasmid was provided by Dr. Yan Dong from Tulane University. Fugene HD and the UBE2C-Luc plasmid (10 ng/well) were combined at a 3:1 (μL:μg) ratio, in Opti-MEM and incubated for 25 min at RT before being added to PC3-AR-V7-GFP cells that were suspended in RPMI 1640 (Gibco) media containing 1% L-glutamine (Invitrogen), and 10% fetal bovine serum (Gemini Bio-products). Bulk transfected PC3-AR-V7-GFP cells were seeded into white opaque 384-well assay plates (Greiner Bio-one, #781080) at a density of 3000 cell per well in a volume of 40 μL and incubated at 5% CO2, 37 °C, and 95% humidity for 24 h. After 24 h, 10 μL of compounds were transferred to assay wells and the plates were returned to the incubator for an additional 24 h before 25 μL of BrightGlo luciferase reagent (Promega) was added to the wells and the RLU’s were captured on a SpectraMax M5e plate reader (Molecular Devices LLC) as described previously.
Background: A reporter such as luciferase makes a cellular process visible.

Series [3] addresses T2, AR-LBD::TIF2-Box III-LXXLL-Peptide (Homo sapiens, UniProt P10275).
T2 construct: The pET28a-AR-LBD (622–919) construct [78] was a gift; made in house
T2 sequence (P10275 622-919): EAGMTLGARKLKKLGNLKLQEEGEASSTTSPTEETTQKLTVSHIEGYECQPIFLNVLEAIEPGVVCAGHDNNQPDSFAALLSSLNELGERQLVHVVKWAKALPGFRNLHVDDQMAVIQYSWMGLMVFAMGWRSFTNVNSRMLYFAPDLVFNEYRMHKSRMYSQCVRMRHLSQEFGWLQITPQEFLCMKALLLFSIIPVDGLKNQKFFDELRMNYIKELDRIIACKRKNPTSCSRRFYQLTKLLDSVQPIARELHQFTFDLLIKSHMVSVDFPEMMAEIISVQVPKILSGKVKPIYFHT
In words: AR-LBD::TIF2-Box III-LXXLL-peptide AlphaScreen binding assay. The note with it: DHT-induced TIF2 box 3 LXXLL-peptide binding to recombinant AR-LBD. The source says:
The pET28a-AR-LBD (622–919) construct was a gift from Dr. Fletterick and Dr. Nguyen of University of California San Francisco. Biotinylated (Biotin-HN-[…]-CONH2) and non-biotinylated TIF2-box-III (738–756) peptide (H2N-[…]-CONH2) were synthesized by the Peptide & Peptoid Synthesis Facility, at the University of Pittsburgh Health Sciences Core Research Facilities. ALPHAScreen streptavidin donor beads (SA-DB) and nickel chelate acceptor beads (Ni-AB) were purchased from Perkin Elmer (Waltham, MA). The assay was performed in 384-well white opaque plates (Greiner BioOne, #781080). […] 18 uL of the SA-DB bound biotinylated TIF2 peptide mixture was added to the assay plate before 5 μL of compounds were transferred into assay wells and 27 μL of the AlphaScreen donor and acceptor bead mixture was added to the plate. 32 wells containing 0.5% DMSO provided maximum controls and 32 wells containing a 500-fold excess of unlabeled TIF2-box-III (75 μM) were used as minimum controls. The combined bead-protein-peptide-compound mixture was incubated for 1 h at room temperature in the dark, and then the RLU’s were acquired at 520 nm after excitation at 680 nm on an Envision plate reader (Perkin Elmer, Waltham, MA) as described previously.
A general note: Bead proximity is the source of the signal in Alpha formats.

The target in series [4] is T1, AR-V7. In words: PSA6.1 promoter driven luciferase reporter assay in PC3-AR-V7-GFP cells. In kind it is cell-based. The note with it: constitutive, 24 h; read-out: PC-3-ARV7-GFP PSA6.1-Luc Reporter IC50. As to the method: PC3-AR-V7-GFP cells were bulk transfected with a mixture of Fugene HD and the PSA-6.1-Luc reporter plasmid (20 ng/well) combined at a 3:1 (μL:μg) ratio in Opti-MEM (Gibco, Gaithersburg, MD) that had been incubated for 25 min at RT before being added to PC3-AR-V7-GFP cells that were suspended in RPMI 1640 (Gibco) media containing 1% L-glutamine (Invitrogen), and 10% fetal bovine serum (Gemini Bio-products). Bulk transfected PC3-AR-V7-GFP cells were seeded into white opaque 384-well assay plates (Greiner Bio-one, #781080) at 3000 cells per well in a volume of 40 μL and incubated at 5% CO2, 37 °C, and 95% humidity for 24 h. After 24 h, 5 μL of compounds were transferred to assay wells and the plates were returned to the incubator for an additional 24 h before 25 μL of BrightGlo luciferase reagent (Promega) was added to the wells and the RLU’s were captured on a SpectraMax M5e plate reader (Molecular Devices LLC) as described previously.

“And” between values parts separate entries of the source, which are not always exact repeats. Identical values can stand only once.

Regarding `Cc1ccccc1-c1cc(O)c2c(c1)CN(c1nc(C(N)=O)cs1)CCO2` [S1–1], the GI50 in series [1] was more than 100 µM. The values for the IC50 (at AR-V7 [2]; in series [3]; at AR-V7 [4]) were 34.7 µM, 21.4 µM and 33.5 µM, respectively.
As to `Cc1ccccc1-c1cc(O)c2c(c1)CN(c1nccs1)CCO2` [S1–3], the IC50 in series [3] was determined as 44.1 µM.
In the case of `Cc1nsc(NC(=O)N2CCC(Sc3ccccc3C)CC2)n1` [S2–6], in series [1], the GI50 was more than 100 µM. The IC50 on AR-V7 [2] is 14.5 µM; in series [3], 64.2 µM; on AR-V7 [4], 8 µM and 7.88 µM.
Turning to `Cc1c(-c2ccccc2F)[nH]c2ccc(CNC(=O)CCc3cn[nH]c3)cc12` [S3–11], the GI50 in series [1] was more than 100 µM. The figures for the IC50 (on AR-V7 [2]; in series [3]; on AR-V7 [4]) were 21 µM, 88.3 µM and 10.7 µM, respectively.
Turning to `Cc1c(-c2ccccc2F)[nH]c2ccc(CNC(=O)CCc3cnccn3)cc12` [S3–12], in series [1], the GI50 is more than 100 µM. Further, the IC50 at AR-V7 [2] is 17.7 µM; on AR-V7 [4], 8.17 µM.
As for `CC(=O)NCCC(=O)NCc1ccc2[nH]c(-c3ccccc3F)c(C)c2c1` [S3–13], the GI50 in series [1] was more than 100 µM. Besides, the IC50 in series [3] came out at 91.6 µM; on AR-V7 [4] it was 51.7 µM.
As for `Cc1c(-c2ccccc2F)[nH]c2ccc(CNC(=O)c3ccc(CO)o3)cc12` [S3–14], the GI50 in series [1] was more than 100 µM. Moreover, the values for the IC50 (on AR-V7 [2]; in series [3]; at AR-V7 [4]) were 46 µM, 28.3 µM and 43.9 µM, respectively.
On to `Cc1c(-c2ccc(F)cc2)[nH]c2ccc(CNC(=O)c3ccc(CO)o3)cc12` [S3–15], for which, in series [1], the GI50 is more than 100 µM. The IC50 on AR-V7 [2] is 18.5 µM; in series [3], 19.6 µM; at AR-V7 [4], 10.1 µM.

What is called GI50 is the concentration that inhibits growth by half. The term IC50 denotes the point on the concentration scale where inhibition reaches its midpoint.
